Patent publication US20240092835A1, “NOVEL PEPTIDES CAPABLE OF ALTERING NK CELL ACTIVITY” (Massachusetts Institute of Technology, priority 2022, published 2024)

Key:
[1] = test system: NKG2A−/NKG2C+ NK cells; experiment: NK cell activation markers in NKG2A-/NKG2C+ NK cells incubated with peptide and K562 expressing HLA-E (activation); type: cell-based, human; settings: for percentage of CCL3+ NK cells / percentage of CD107+ NK cells / percentage of IFNG+ NK cells / percentage of TNF+ NK cells: NKG2A-/NKG2C+ NK cells, K562/HLA-E
Outline: (§1)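 Percent of NK cells positive for cell-surface markers was measured after exposure to K562 targets expressing HLA-E and loaded with human- or HCMV-proteome-derived peptides. A decrease means inhibition, an increase activation; NKG2A−/NKG2C− cells served as controls.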

[2] = test system: NKG2A−/NKG2C+ NK cells; experiment: NKG2A-/NKG2C+ NK cell activation with peptide and RMA-S cells expressing HLA-E; type: cell-based; settings: RMA-S cells expressing HLA-E
Procedure: An antigen processing-defective lymphoma cell line (RMA-S), with a low-level expression of HLA-E, were incubated with the novel peptides to determine the inhibitory strength on NKG2A−/NKG2C+NK cells relative to positive control sequences with differential effects ([…] (SEQ ID NO: 19)/VMAPRTLFL (SEQ ID NO: 18)). The effects of the peptides on NK cell inhibition were determined by measuring four markers of NK cell activation (CD107a, IFNG, TNF, CCL3) in NKG2A−/NKG2C+NK cells (FIGS. 2A-2D). Activation was indicated by an increase in percent cells positive for cell surface markers.

[3] = biological target: T1, HLA-E (Homo sapiens, UniProt P13747); experiment: HLA-E surface stabilization assay with RMA-S/HLA-E cells; type: cell-based; settings: 30 μM peptide, 16 hours; for HLA-E surface expression stability (GeoMFI): anti-HLA-E antibody
T1 construct: expressed in transfected cells; host or cells: RMA-S/HLA-E cells (antigen processing-defective lymphoma cell line)
Procedure: HLA-E surface expression was assessed by measuring geometric mean fluorescence intensity (GeoMFI) in RMA-S cells following immunofluorescence staining with an anti-HLA-E antibody (Table 14). Increased GeoMFI was indicative of increased HLA-E surface expression stability following novel peptide exposures (FIG. 3).

[4] = test system: NKG2A−/NKG2C− NK cells; experiment: NK cell activation markers in control NKG2A-/NKG2C- NK cells incubated with peptide and K562 expressing HLA-E; type: cell-based, human
Outline: as §1

[5] = test system: NKG2A+/NKG2C− NK cells; experiment: NK cell activation markers in NKG2A+/NKG2C- NK cells incubated with peptide and K562 expressing HLA-E (inhibition); type: cell-based, human; settings: for percentage of CCL3+ NK cells / percentage of CD107a+ NK cells / percentage of IFNG+ NK cells / percentage of TNF+ NK cells: NKG2A+/NKG2C- NK cells, K562/HLA-E
Outline: as §1

[6] = K562 expressing HLA-E, CD107a, IFNG, TNF, CCL3

T1 sequence (P13747 22-358): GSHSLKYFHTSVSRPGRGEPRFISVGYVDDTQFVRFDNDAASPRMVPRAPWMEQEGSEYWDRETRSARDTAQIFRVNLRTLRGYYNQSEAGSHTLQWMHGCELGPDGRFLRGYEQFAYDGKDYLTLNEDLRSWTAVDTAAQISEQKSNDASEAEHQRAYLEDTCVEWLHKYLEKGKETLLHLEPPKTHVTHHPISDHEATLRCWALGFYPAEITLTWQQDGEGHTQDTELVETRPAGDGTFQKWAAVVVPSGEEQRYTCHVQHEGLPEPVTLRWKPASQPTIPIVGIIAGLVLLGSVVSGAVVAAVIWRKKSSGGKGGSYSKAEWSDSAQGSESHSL
T1 sequence (P61769 21-119 partner): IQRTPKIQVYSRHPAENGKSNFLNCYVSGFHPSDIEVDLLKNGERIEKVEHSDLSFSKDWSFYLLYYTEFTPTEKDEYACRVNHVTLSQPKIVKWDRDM

NMPARTVLF [human14, peptide MTREX 490-498 derived from the human proteome]
effect on NKG2A−/NKG2C+ NK cell activation (in words) [1, 6]: strong inhibitory and activating effects | percentage of CCL3+ NK cells ([1]; Trial 1): 70.6% | percentage of CD107+ NK cells ([1]; Trial 1): 61.3% | percentage of IFNG+ NK cells ([1]; Trial 1): 45.6% | percentage of TNF+ NK cells ([1]; Trial 1): 31.9% | percentage of CCL3+ NK cells ([1]; Trial 2): 87.5% | percentage of CD107+ NK cells ([1]; Trial 2): 83.1% | percentage of IFNG+ NK cells ([1]; Trial 2): 72.7% | percentage of TNF+ NK cells ([1]; Trial 2): 65.1% | percentage of CCL3+ NK cells ([1]; Trial 3): 82.5% | percentage of CD107+ NK cells ([1]; Trial 3): 85% | percentage of IFNG+ NK cells ([1]; Trial 3): 74.2% | percentage of TNF+ NK cells ([1]; Trial 3): 65% | percentage of CCL3+ NK cells ([1]; Trial 4): 61.1% | percentage of CD107+ NK cells ([1]; Trial 4): 59.1% | percentage of IFNG+ NK cells ([1]; Trial 4): 47.5% | percentage of TNF+ NK cells ([1]; Trial 4): 40% | percentage of CCL3+ NK cells ([1]; Trial 5): 71.8% | percentage of CD107+ NK cells ([1]; Trial 5): 70.5% | percentage of IFNG+ NK cells ([1]; Trial 5): 61.9% | percentage of TNF+ NK cells ([1]; Trial 5): 57.9% | percentage of CCL3+ NK cells ([1]; Trial 6): 52.1% | percentage of CD107+ NK cells ([1]; Trial 6): 44.3% | percentage of IFNG+ NK cells ([1]; Trial 6): 30.5% | percentage of TNF+ NK cells ([1]; Trial 6): 21.8% | NKG2A−/NKG2C+ NK cell activation relative to positive control peptides (in words) [2]: decreased NK cell activation relative to the positive control peptides | HLA-E surface expression stability (GeoMFI) ([3]; Trial 1): 1304 GeoMFI | HLA-E surface expression stability (GeoMFI) ([3]; Trial 2): 1364 GeoMFI | HLA-E surface expression stability (GeoMFI) ([3]; Trial 3): 1005 GeoMFI | HLA-E surface expression stability (GeoMFI) ([3]; Trial 4): 1738 GeoMFI | HLA-E surface expression stabilization strength, approximate GeoMFI ([3]; approximate value): approximately 1×10^3 GeoMFI | percentage CCL3+ NK cells ([4]; Trial 1): 29.3% | percentage CD107+ NK cells ([4]; Trial 1): 20.9% | percentage TNF+ NK cells ([4]; Trial 1): 2.61% | percentage of IFNG+ NK cells ([4]; Trial 1): 12.1% | percentage CCL3+ NK cells ([4]; Trial 2): 54.7% | percentage CD107+ NK cells ([4]; Trial 2): 31.4% | percentage TNF+ NK cells ([4]; Trial 2): 9.25% | percentage of IFNG+ NK cells ([4]; Trial 2): 27.7% | percentage CCL3+ NK cells ([4]; Trial 3): 44% | percentage CD107+ NK cells ([4]; Trial 3): 43.7% | percentage TNF+ NK cells ([4]; Trial 3): 17.1% | percentage of IFNG+ NK cells ([4]; Trial 3): 36.5% | percentage CCL3+ NK cells ([4]; Trial 4): 29.2% | percentage CD107+ NK cells ([4]; Trial 4): 25.6% | percentage TNF+ NK cells ([4]; Trial 4): 8.96% | percentage of IFNG+ NK cells ([4]; Trial 4): 17.5% | percentage CCL3+ NK cells ([4]; Trial 5): 26.9% | percentage CD107+ NK cells ([4]; Trial 5): 21.8% | percentage TNF+ NK cells ([4]; Trial 5): 7.19% | percentage of IFNG+ NK cells ([4]; Trial 5): 16.7% | percentage CCL3+ NK cells ([4]; Trial 6): 20.9% | percentage CD107+ NK cells ([4]; Trial 6): 16.7% | percentage TNF+ NK cells ([4]; Trial 6): 2.97% | percentage of IFNG+ NK cells ([4]; Trial 6): 7.36% | effect on NKG2A+/NKG2C− NK cell inhibition (in words) [5, 6]: strong inhibitory | percentage of CCL3+ NK cells ([5]; Trial 1): 3.55% | percentage of CD107a+ NK cells ([5]; Trial 1): 1.54% | percentage of IFNG+ NK cells ([5]; Trial 1): 0.3% | percentage of TNF+ NK cells ([5]; Trial 1): 0.12% | percentage of CCL3+ NK cells ([5]; Trial 2): 6.94% | percentage of CD107a+ NK cells ([5]; Trial 2): 2.38% | percentage of IFNG+ NK cells ([5]; Trial 2): 0.79% | percentage of TNF+ NK cells ([5]; Trial 2): 0.31% | percentage of CCL3+ NK cells ([5]; Trial 3): 6.08% | percentage of CD107a+ NK cells ([5]; Trial 3): 3.66% | percentage of IFNG+ NK cells ([5]; Trial 3): 2.62% | percentage of TNF+ NK cells ([5]; Trial 3): 1.09% | percentage of CCL3+ NK cells ([5]; Trial 4): 3.51% | percentage of CD107a+ NK cells ([5]; Trial 4): 2.52% | percentage of IFNG+ NK cells ([5]; Trial 4): 0.83% | percentage of TNF+ NK cells ([5]; Trial 4): 0.55% | percentage of CCL3+ NK cells ([5]; Trial 5): 17% | percentage of CD107a+ NK cells ([5]; Trial 5): 4.05% | percentage of IFNG+ NK cells ([5]; Trial 5): 2.12% | percentage of TNF+ NK cells ([5]; Trial 5): 0.89% | percentage of CCL3+ NK cells ([5]; Trial 6): 2.66% | percentage of CD107a+ NK cells ([5]; Trial 6): 1.16% | percentage of IFNG+ NK cells ([5]; Trial 6): 0.43% | percentage of TNF+ NK cells ([5]; Trial 6): 0.14%
